Assay results from the METLIN SMRT retention time set (Domingo-Almenara et al. 2019).

Experiment: gradient 5% acetonitrile 3 min, to 50% in 2 min, to 85% in 15 min, held 3 min, 100 µL/min
Conditions: column: Zorbax Extend-C18 2.1 x 50 mm; eluents: water / acetonitrile, 0.1% formic acid
In short: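 Using water and acetonitrile that each contained 0.1% formic acid, mixtures of ~100 pure standards were separated at 100 μL/min on a Zorbax Extend-C18 column (2.1 × 50 mm, 1.8 μm). The HPLC fed a quadrupole time-of-flight mass spectrometer working in positive and negative ionization mode, with dead and dwell volumes of 40 μL and 900 μL. Data were acquired over 3 months. Retention time was read from computationally picked adduct peaks after manual inspection of each.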

Row | Structure (SMILES) | RP-LC retention time
1 | Cc1ccc(Nc2c(-c3ccccc3Cl)nc3ccc(Br)cn23)cc1 | 1110 s
2 | CCc1c(C2CCN(C(=O)C3COc4ccccc4O3)CC2)noc1N (stereo not given) | 684 s
3 | CCCN1CCN(C(=O)C2CCCN(c3nnc4ccc(C(F)(F)F)cn34)C2)CC1 (stereo not given) | 510 s
4 | CCN1C(=O)c2cccnc2Sc2cc(C(=O)N3CCCC3)ccc21 | 684 s
5 | CC1CCN(S(=O)(=O)N2CCC(C(=O)N3CCCC(c4nc(C5CCOCC5)no4)C3)CC2)CC1 (stereo not given) | 878 s
6 | Cc1sc2ccn(Cc3ccc(F)cc3)c(=O)c2c1C(=O)NCC1CC1 | 858 s
7 | CC(C)CCN1CC(=O)N2Cc3[nH]c4ccccc4c3C[C@H]2C1=O | 825 s
8 | COc1ccc(C(=O)N2C[C@@H]3C[C@H](NC(=O)c4cccs4)[C@H]2C3)cn1 | 679 s
9 | COc1cccc(N2CCN(C(=O)CN3CCN(Cc4ccc(C)cc4)C(=O)C3=O)CC2)c1 | 772 s
10 | CCCN(CC1CCOC1)C(=O)Nc1c(F)cccc1F (stereo not given) | 731 s
11 | COc1ccc(-c2cc(N3CCC(NC(=O)c4ccc(Br)o4)CC3)n[nH]2)cc1 | 735 s
12 | Cc1cccc(-n2c(=O)c3c(cc(C)n3C)n(CC(=O)Nc3cccc(C#N)c3)c2=O)c1 | 846 s
13 | O=C(c1ccc(OCC2CCCN2C(=O)COc2ccc(F)cc2)cc1)N1CCOCC1 (stereo not given) | 778 s
14 | O=C(c1cc2c(s1)CCC(C(=O)N1CCN(C3CCCC3)CC1)C2)N1CCCC1 (stereo not given) | 606 s
15 | CCOC(=O)c1cncn1C(C)c1ccccc1 (stereo not given) | 774 s
16 | CCCN(CC1CCOC1)C(=O)Nc1ccc(F)cc1 (stereo not given) | 728 s
17 | Cc1ccc(Oc2nccnc2SCC(=O)Nc2cc(C)cc(C)c2)cc1 | 1200 s
18 | CC(C)n1cc(C2=CCN(C(=O)NC3CCCCC3)CC2)c2cccnc21 | 945 s
19 | O=S(=O)(c1ccc2nc(N3CCN(c4ccc(F)cc4)CC3)ccc2c1)N1CCOCC1 | 890 s
20 | Cc1ccc(-c2nnc(-c3ccccc3)o2)cc1S(=O)(=O)N(C)C | 950 s
21 | c1ccc(-c2nc(C3CC3)no2)c(OC2CN(Cc3ccncc3)C2)c1 | 611 s

Row | Structure (SMILES) | RP-LC retention time
22 | O=C(c1ccc(N2CCN(c3ncccn3)CC2)nn1)N1CCc2ccccc21 | 784 s
23 | O=C(NCCN1CCOCC1)C1CN(C(=O)c2ccccc2)CC12CCCCC2 (stereo not given) | 605 s
24 | O=C(c1ccccc1Br)N1CCN(c2cc(-c3ccc(F)cc3)[nH]n2)CC1 | 824 s
25 | O=C(NCc1noc(C2CCCC2)n1)c1ccc(F)cc1 | 798 s
26 | O=C1CSc2ccc(S(=O)(=O)N3CCC(C(=O)NC4CCCC4)CC3)cc2N1 | 746 s
27 | Cc1cccc2c(C(=O)NC(C)C)cc(N3CCCC3)nc12 | 611 s
28 | CCN(CC)C(=O)Cn1nc(-c2nc(-c3ccc(F)cc3)no2)ccc1=O | 861 s
29 | O=C(Cn1nc2c3ccccc3ncn2c1=O)NCCc1ccc(Cl)cc1 | 707 s
30 | O=C(C1=CCN(Cc2cccc(F)c2)CC1)N1CCN(c2ccccc2)CC1 | 642 s
31 | O=C(Nc1ccc(C(F)(F)F)cn1)c1cccc2cccnc12 | 1090 s
32 | Cn1cc(CN2CCC(C(=O)NC3CCCCC3)CC2)c2cc(Cl)ccc21 | 702 s
33 | COCCc1noc(-c2nc(-c3ccc(OC)c(OC)c3)no2)n1 | 892 s
34 | CCOC(=O)C1CCN(C(=O)Cn2cnc3nc4c(cc3c2=O)CCCC4)CC1 | 678 s
35 | CC(C)C(=O)NCc1csc(C2CCCN(C(=O)c3cc(F)cc(F)c3)C2)n1 (stereo not given) | 757 s
36 | Nc1c(-c2nnc(SCC(=O)N3CCOCC3)n2CC2CCCO2)sc2ncccc12 (stereo not given) | 641 s
37 | O=C(NC1CCCC1)C1CC(=O)N(c2ccc3c(c2)CCN3C(=O)C2CC2)C1 (stereo not given) | 704 s
38 | CCCNC(=O)C1c2ccccc2CCN1C(=O)C1CC1 (stereo not given) | 725 s
39 | CCc1nnc2nc(N3CCN(C(=O)c4cccc(N(C)C)c4)CC3)cc(C)n12 | 574 s
40 | Cc1cccc(-n2c(=O)c3c(cc(C)n3C)n(CC(=O)Nc3cc(Cl)ccc3C)c2=O)c1 | 960 s
41 | Cc1nc2cc3c(cc2n1CC(=O)NCCc1ccc(F)cc1)OCCO3 | 646 s

The next lines start with the values.

Row | RP-LC retention time | Structure (SMILES)
42 | 718 s | CCn1c(C2CCN(C(=O)Nc3cccc(Cl)c3)CC2)cc(=O)n2nccc12
43 | 1020 s | Cc1ccc(S(=O)(=O)N2C(=O)CCC2C(=O)Nc2ccc(C)c(F)c2)cc1C (stereo not given)
44 | 998 s | CC(CCc1ccccc1)NC(=O)C1CCN(c2cc(Oc3ccccc3)ncn2)CC1 (stereo not given)
45 | 624 s | COCCN1C(=O)c2ccccc2C(C(=O)NCCCN2CCCCC2C)C1c1cccs1 (stereo not given)
46 | 741 s | Cc1ccc(CNC(=O)c2ccccc2CN2C(=O)C3CCCN3C(=O)c3ccccc32)o1 (stereo not given)
47 | 839 s | CN(CCc1noc(-c2ccc(C(=O)NC3CCCC3)cc2)n1)C(=O)c1ccccc1F
48 | 899 s | O=C(COc1ccccc1)Nc1ccc2c(c1)N(C(=O)c1ccco1)CCC2
49 | 765 s | CCS(=O)(=O)N1CCC(C(=O)NCCc2csc(-c3ccccc3)n2)CC1
50 | 902 s | COc1ccc(-c2cc3nn(CC(=O)N4CCCC(C)C4)c(=O)n3c(C)n2)cc1 (stereo not given)
51 | 914 s | CC(C)NC(=O)c1ccc(OCC2CCCN2C(=O)c2ccc(C(F)(F)F)cc2)cc1 (stereo not given)
52 | 721 s | O=C(Cc1ccccc1Cl)NC1CCN(c2cc(-c3ccccc3)[nH]n2)C1 (stereo not given)
53 | 864 s | COC(=O)c1c(NC(C)c2ccccc2)c2cccc(Cl)c2[nH]c1=O (stereo not given)
54 | 760 s | COC(=O)c1ncn2c1C(=O)N(Cc1cccc(F)c1)C(C)(C(=O)NCc1ccc(C)cc1)C2 (stereo not given)
55 | 800 s | CC1(C(=O)NCc2ccc(Cl)cc2)CN(S(C)(=O)=O)CC(=O)N1c1ccc(F)cc1 (stereo not given)
56 | 855 s | COCCCn1cnc2c(-c3ccccc3)cn(CC(=O)NCc3ccc4c(c3)OCO4)c2c1=O
57 | 748 s | COc1ccc(-c2cc(=O)n(CC(=O)Nc3cccc4nsnc34)cn2)cc1
58 | 665 s | COC(=O)Nc1ccc(-c2nc(N3CCOCC3)c3cnn(C4CCN(Cc5cccnc5)CC4)c3n2)cc1
59 | 690 s | CC(=O)Nc1ccc2c(c1)CN(C(=O)c1cccc(Cl)c1)C(C(=O)N1CCCC1)C2 (stereo not given)
60 | 881 s | O=C(c1ccc(Br)o1)N1CCC(Cc2nnc(-c3ccccc3)o2)CC1
61 | 618 s | Cc1nc(-c2csc(S(=O)(=O)N3CCC(C(=O)NCc4cccnc4)CC3)c2)no1
62 | 925 s | Cc1ccccc1CNC(=O)C1(C)CCN(S(=O)(=O)c2ccc(F)cc2)CC1
63 | 916 s | COC(=O)c1cc(S(=O)(=O)N2CCCC2C(=O)Nc2cccc3ccccc23)cn1C (stereo not given)
64 | 696 s | COc1ccc(NS(=O)(=O)c2cc3n(c2)CCCN(C)C3=O)cc1Cl
65 | 958 s | COc1ccc(C2(C(=O)N3CCC(c4nc(CCOCc5ccccc5)no4)C3)CC2)cc1 (stereo not given)
